Where a name gives a salt, the structure may show the parent alone. Read-outs that look alike come from different tables or passages of the source.
Key:
[1] = Moisture sorption isotherm; format: physicochemical; settings: for moisture sorption weight gain: 25° C.
Description: Example 1 has moisture sorption weight gains of 0.8 weight % and 2.8 weight % between 25% and 75% relative humidity and 5% and 95% relative humidity, respectively.
Moisture sorption isotherms were collected in a VTI SGA-100 Symmetric Vapor Analyzer using approximately 10 mg of sample. The sample was dried at 60° C. until the loss rate of 0.0005 wt %/min was obtained for 10 minutes. The sample was tested at 25° C. and 3 or 4, 5, 15, 25, 35, 45, 50, 65, 75, 85, and 95% RH. Equilibration at each RH was reached when the rate of 0.0003 wt %/min for 35 minutes was achieved or a maximum of 600 minutes.

[2] = Salt screen and crystalline salt characterization; format: physicochemical; settings: for hygroscopicity: ambient temperature and relative humidity conditions, Hemisulfate Salt
Description: High throughput crystallization was employed to screen for the formation of crystalline salts of Compound (I). The screening examined acid type, acid level (equivalents), and/or type of crystallization solvent. Each plate contained 96 well plates (8 rows of 12 columns per plate).
A solution was prepared by dissolving 400 mg of Compound (I) in a mixture of 36 ml THF and 4 mL H2O. The solution ([…]) was transferred to 24 vials. To each vial was added 0.25 M EtOH stock solutions of the following acids:
The content of each vial was transferred to 12 crystallization wells and evaporated to dryness. Upon evaporation, each well was charged with 100 μl of solvent using a robotic liquid handler. The following crystallization solvents were tested: methyl isobutyl ketone (MIBK), ethyl acetate, toluene, THF, acetonitrile, acetone, isopropanol, ethanol, methanol, 1,2-dichloroethylene, isopropanol/water (50:50), and water. Next, the plates were sealed with Teflon septa and subjected to temperature cycling. The plates were maintained at 50° C. for 10 hours and then allowed to cool to room temperature over a period of 14 hours. After the heating/cooling cycle, the contents of the wells were characterized by birefringent imaging. Perceived crystalline hits were further characterized by PXRD analysis.

[3] = Water activity studies between crystalline forms; format: physicochemical
Description: Form P22C: prepared by heating Form H1.5-1 at 60° C. for 2 hours or at 75° C. for 5 minutes.
Form P33: Form H1.5-1 converted to Form P33 between 50° C. and 75° C. in variable temperature PXRD experiment. Also observed after Form H1.5-1 was heated to 105° C. for 5 minutes, or prepared by slurring dry powder Form H1.5-1 in dry EtOH or IPAc. […] Form P35: Prepared from slurry of Form H1.5-1 in dry MeOH under molecular sieves (7% RH). Converted to Form P33 when dried at 60° C. Stability in Water Slurry

[4] = Solid state stability study; format: physicochemical
Description: The solid state stability of Example 1 was tested by exposing samples to various temperature and relative humidity conditions for periods of 1, 2, and 4 weeks.

[5] = Stability in water slurry; format: physicochemical; settings: room temperature, two days
Description: An aqueous slurry of Example 1 was prepared and stored at room temperature.

[6] = In vivo pharmacokinetic study in humans with and without famotidine pretreatment; settings: for AUC(0-inf) / Cmax / half-life / Tmax: human, plasma; for AUC(0-inf) / Cmax / half-life / Cl/F: (%); for Tmax: read-out: Tmax Median
Description: An in vivo study was conducted comparing the pharmacokinetics of the free base Compound (I) in humans pretreated with 40 mg of famotidine with non-pretreated humans.
Compound (I) in human EDTA plasma was analyzed using liquid-liquid extraction with uHPLC-MS/MS detection on a Triple Quad 5500 mass spectrometer. The method utilized stable isotope labeled [^13C2, D4]-Compound (I) as the internal standard. After the addition of 50 μL of 100 ng/mL [^13C2, D4]-Compound (I) in MeOH:water (20/80) and of 50 μL 1M NH4OAc containing 4% acetic acid buffer solution to 0.100 mL of each study sample, quality control (QC) sample, and calibration standard, the samples were extracted with 600 μL methyl tert-butyl ether (MTBE) by shaking for 15 min. A 450 μL portion of the organic layer was removed and evaporated to dryness. The residue was reconstituted in 200 μL of the reconstitution solution (30% acetonitrile in 10 mM NH4OAc with 0.01% acetic acid). All liquid transfer steps were performed using a Perkin Elmer JANUS Mini® liquid handler except for the addition of the internal standard solution. A 10 μL aliquot of the extracted sample was injected to uHPLC-MS/MS system. The uHPLC was performed on a LEAP 4X Ultra uHPLC system with LEAP HTC PAL autosampler. Mobile phase A contained 10 mM NH4OAc and 0.01% acetic acid in ACN/water (10:90), and mobile phase B contained 10 mM NH4OAc and 0.01% acetic acid in ACN/water (90:10). Chromatographic separation was achieved on an Acquity® uHPLC BEH C18 column (1.7 μm, 2.1×50 mm) with an isocratic elution from 0-1.5 min consisted of 28% Mobile Phase B for analysis of Compound (I), then with a gradient elution consisted of a linear increase from 28% B to 100% B in 0.1 min, then maintaining it at 100% B for 1.1 min for washing out the column. The gradient was then returned to 28% B within 0.1 min, and maintained at 28% for 0.9 min with a total run time of 3.7 min. The flow rate was 0.6 mL/min and column temperature was maintained at 60° C. condition. Detection was accomplished using an AB Sciex Triple Quad 5500 mass spectrometer in positive ESI with turbo ion spray ionization and using multiple reaction monitoring (MRM) mode. The MRM transitions were m/z 535→256 for Compound (I) and m/z 541→256 for [^13C2, D4]-Compound (I). Data acquisition and quantiation were performed using AB Sciex Analyst® 1.5.1 software. The standard curve, which ranged from 0.500-500 ng/ml for Compound (I), was fitted to a 1/x2 weighted linear regression model. During sample analysis, four levels of analytical quality control (QC) samples representing low, geometric-mean, medium, and high concentrations of Compound (I) prepared in human EDTA plasma were analyzed in 4 replicates at each concentration level for each analytical run. The results from these QC samples were used to accept or reject the analytical runs containing study samples based on the acceptance criteria established a priori for the analysis of Compound (I) in human EDTA plasma.

[7] = Dissolution rate in aqueous medium; format: physicochemical; settings: pH 1 and 5 versus pH 7
From the text: The dissolution rate of Compound (I) is dependent on the pH of the aqueous medium. […] The normal pH of the stomach is 1.2 to 1.8 according to […], Clinical Analysis, Chapter 32, in Remington: The Science and Practice of Pharmacy 20th Edition, A. R. Gennaro, editor; 2000, Lippinocott Williams & Wilkins, Baltimore, Md. However, patients often take other medications that can raise the pH of the stomach, including antacids, proton pump inhibitors, and H2-receptor antagonists such as famotidine, which can lower the dissolution rate of Compound (I).

[8] = 25 RH/60° C. (first line, r9), 2 weeks
[9] = 25 RH/60° C. (first line, r9), 4 weeks
[10] = 25 RH/60° C. (first of three lines printed alike, r9), 1 week
[11] = 25 RH/60° C. (second line, r11), 1 week
[12] = 25 RH/60° C. (second line, r11), 2 weeks
[13] = 25 RH/60° C. (second line, r11), 4 weeks
[14] = 25 RH/60° C. (third line, r13), 1 week
[15] = 25 RH/60° C. (third line, r13), 2 weeks
[16] = 25 RH/60° C. (third line, r13), 4 weeks
[17] = HIL/UV (high-intensity light/ultraviolet), 1 week
[18] = HIL/UV (high-intensity light/ultraviolet), 2 weeks
[19] = humans, 150 mg Compound (I) oral with 40 mg Famotidine pretreatment
[20] = humans, 150 mg Compound (I) oral, no pretreatment
[21] = humans, 150 mg with 40 mg Famotidine relative to no pretreatment

Structure (SMILES): N[C@@H]1c2cccnc2[C@H](OC(=O)N2CCC(n3c(=O)[nH]c4ncccc43)CC2)CC[C@H]1c1cccc(F)c1F [Example 1, (5S,6S,9R)-5-Amino-6-(2,3-difluorophenyl)-6,7,8,9-tetrahydro-5H-cyclohepta[b]pyridin-9-yl-4-(2-oxo-2,3-dihydro-1H-imidazo[4,5-b]pyridin-1-yl) piperidine-1-carboxylate, Hemisulfate Salt]
- moisture sorption weight gain ([1]; between 5% and 95% relative humidity): 2.8 weight %
- moisture sorption weight gain ([1]; between 25% and 75% relative humidity): 0.8 weight %
- hygroscopicity ([1]; moisture sorption isotherm at 25° C.): low or non-hygroscopic
- hygroscopicity ([2]; listed as Sulfuric acid): low/non-
- hygroscopicity ([2]; listed as hemisulfate salt of Compound (I)): low hygroscopicity
- chemical stability ([2]; crystalline salt): chemically stable
- physical stability ([2]; crystalline salt): physically stable
- relative stability of crystalline forms ([3]; Form H1.5-1 versus Form P22C): more stable at >23% relative humidity
- relative stability of crystalline forms ([3]; Form H1.5-1 versus Form P33): more stable at >23% relative humidity
- % potency [4, 8]: 96.8%
- % total impurities [4, 8]: 0.27%
- % potency [4, 9]: 96.9%
- % total impurities [4, 9]: 0.27%
- % potency [4, 10]: 94.4%
- % total impurities [4, 10]: 0.27%
- % potency [4, 11]: 95.1%
- % total impurities [4, 11]: 0.27%
- % potency [4, 12]: 98.5%
- % total impurities [4, 12]: 0.27%
- % potency [4, 13]: 97.0%
- % total impurities [4, 13]: 0.27%
- % potency [4, 14]: 101.6%
- % total impurities [4, 14]: 0.28%
- % potency [4, 15]: 102.6%
- % total impurities [4, 15]: 0.27%
- % potency [4, 16]: 110.0%
- % total impurities [4, 16]: 0.27%
- % potency [4, 17]: 100.7%
- % total impurities [4, 17]: 0.27%
- % potency [4, 18]: 96.9%
- % total impurities [4, 18]: 0.27%
- % potency ([4]; Initial): 98.5%
- % total impurities ([4]; Initial): 0.27%
- % potency ([4]; Refrigerated, 1 week): 98.0%
- % total impurities ([4]; Refrigerated, 1 week): 0.29%
- % potency ([4]; Refrigerated, 2 weeks): 96.5%
- % total impurities ([4]; Refrigerated, 2 weeks): 0.27%
- % potency ([4]; Refrigerated, 4 weeks): 105.7%
- % total impurities ([4]; Refrigerated, 4 weeks): 0.27%
- solid state stability ([4]; tested temperature and relative humidity conditions, four weeks of storage): stable under the tested storage conditions
- chemical degradation in aqueous slurry [5]: no significant chemical degradation
- stability of crystalline form in aqueous slurry (PXRD) [5]: stable in the aqueous slurry

Structure (SMILES): N[C@@H]1c2cccnc2[C@H](OC(=O)N2CCC(n3c(=O)[nH]c4ncccc43)CC2)CC[C@H]1c1cccc(F)c1F [Compound (I), (5S,6S,9R)-5-amino-6-(2,3-difluorophenyl)-6,7,8,9-tetrahydro-5H-cyclohepta[b]pyridin-9-yl-4-(2-oxo-2,3-dihydro-1H-imidazo[4,5-b]pyridin-1-yl)piperidine-1-carboxylate]
- AUC(0-inf) [6, 19]: 3060 ng·h/mL
- Cmax [6, 19]: 259 ng/mL
- half-life [6, 19]: 12.6 h
- Tmax [6, 19]: 3 h
- AUC(0-inf) [6, 20]: 7200 ng·h/mL
- Cmax [6, 20]: 991 ng/mL
- half-life [6, 20]: 12 h
- Tmax [6, 20]: 2.5 h
- change in AUC and Cmax ([6]; humans pretreated with 40 mg of famotidine compared to non-pretreated humans): significant reduction
- Cl/F [6, 19]: 49 (28%) L/hr
- Cl/F [6, 20]: 20.84 (75%) L/hr
- F (AUCinf) [6, 21]: 42.5% (96%)
- F (Cmax) [6, 21]: 26.2% (130%)
- dissolution rate [7]: higher dissolution rate at pH values of 1 and 5 than at a pH value of 7
